The record followed here is patent US11591322B2, “Certain chemical compositions and methods of use thereof” (Algen Biotechnologies, Inc., priority 2020, dated 2023).

For one data set, the target named is CDK9/CyclinT (Homo sapiens (Human), UniProt P50750). The experiment in a line: CDK9 biochemical assay (Kinase-Glo Max luminescence). As to conditions: 30° C. for 45 minutes. The method, then: To each well of a 96-well plate was added 5× kinase assay buffer with 10 mM DTT (6 μL), 500 μM ATP (1 μL), 5×CDK substrate (10 μL), and water (8 μL). 5 μL of compound were added to the test and positive control groups, while 5 μL of solvent was added to the blank groups. 100 ng of CDK9/CyclinT in 20 μL water was added to the test and positive control groups, while 20 μL of 1× kinase assay buffer was added to the blank groups. The reaction mixtures were incubated at 30° C. for 45 minutes, and 50 μL of Kinase-Glo® Max was added to each well and the plates were shielded from light and incubated for 15 minutes at room temperature. Luminescence was measured on a microplate reader and IC50 values were calculated using Prism 9 software.
Chain of CDK9/CyclinT (P50750 whole entry): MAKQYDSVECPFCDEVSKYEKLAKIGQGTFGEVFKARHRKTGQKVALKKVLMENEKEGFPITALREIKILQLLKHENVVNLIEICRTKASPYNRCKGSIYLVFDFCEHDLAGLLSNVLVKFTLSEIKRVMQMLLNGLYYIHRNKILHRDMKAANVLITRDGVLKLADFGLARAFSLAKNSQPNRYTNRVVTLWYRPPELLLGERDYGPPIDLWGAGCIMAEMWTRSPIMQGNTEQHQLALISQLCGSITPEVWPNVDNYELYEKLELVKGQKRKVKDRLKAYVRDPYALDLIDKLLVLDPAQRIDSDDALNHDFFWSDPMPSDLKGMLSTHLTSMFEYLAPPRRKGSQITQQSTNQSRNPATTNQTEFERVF
Chain of CDK9/CyclinT (O60563 whole entry partner): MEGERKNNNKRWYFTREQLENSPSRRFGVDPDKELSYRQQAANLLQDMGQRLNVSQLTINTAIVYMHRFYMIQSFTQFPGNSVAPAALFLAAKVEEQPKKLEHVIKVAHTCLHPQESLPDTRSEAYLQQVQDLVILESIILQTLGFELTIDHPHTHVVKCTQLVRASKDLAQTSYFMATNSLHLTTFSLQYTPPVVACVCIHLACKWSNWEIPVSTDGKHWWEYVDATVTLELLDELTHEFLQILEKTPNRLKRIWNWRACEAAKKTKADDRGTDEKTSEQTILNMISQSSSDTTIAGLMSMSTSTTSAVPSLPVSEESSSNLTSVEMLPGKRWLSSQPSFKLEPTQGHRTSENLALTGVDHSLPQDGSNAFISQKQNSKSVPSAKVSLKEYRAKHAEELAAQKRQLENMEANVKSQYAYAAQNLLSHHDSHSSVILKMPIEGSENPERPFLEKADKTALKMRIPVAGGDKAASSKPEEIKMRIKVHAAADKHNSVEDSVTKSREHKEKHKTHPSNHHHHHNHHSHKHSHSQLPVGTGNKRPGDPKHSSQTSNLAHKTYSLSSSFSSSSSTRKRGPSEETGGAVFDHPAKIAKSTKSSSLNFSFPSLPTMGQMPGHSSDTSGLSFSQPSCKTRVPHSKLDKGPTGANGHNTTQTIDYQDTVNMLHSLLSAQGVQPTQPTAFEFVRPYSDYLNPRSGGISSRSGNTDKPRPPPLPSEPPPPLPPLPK
(In general: Kinase-Glo reads ATP consumption through a luciferase reaction.)

Data set [1] can be described thus: Pharmacokinetic and tissue distribution study, liver versus blood in mice. Format: in vivo. As to conditions: CD-1 mice, single oral dose 5 mg/kg suspension, 2 hours; compared with NVP-2 (FIG. 1). The protocol: For mice experiments, the liver and blood pharmacokinetics of compounds were analyzed in CD-1 mice following a single oral administration dose of 5 mg/kg compound suspension.
Liver and blood samples for determination of compound concentration were obtained at 2 hours following administration of compounds (n=3 for each compound). The ratios of compound concentrations in liver versus blood in CD-1 mice following a single oral administration dose of 5 mg/kg compound suspension are summarized in FIG. 1.

For another data set, the system named is HepG2 cells. Description: Cancer cell viability assay (CellTiter-Glo 2.0), HepG2. Type of data set: cell-based, Human. The following applies: HepG2, 72 hours compound treatment. The method, then:
(§1) Human liver cancer cell lines HepG2, Hep3B, Huh7, and SK-HEP-1 cells were rinsed and trypsinized with 0.25% trypsin (Corning #25-053-CI) in an incubator at 37° C. until detached. The cells were resuspended and seeded in 96-well plates to a density of 5,000 cells per well. Following cell adhesion, compounds were added to a final concentration of 2× dilution. 72 hours following compound treatment, CellTiter-Glo® 2.0 was added to the well in a 2:1 ratio of media/CellTiter-Glo® 2.0. The plates were shielded from light, shaken for 2 minutes, and incubated for 10 minutes. Luminescence was measured on a microplate reader and EC50 values were calculated using Prism 9 software.
(In general: ATP-based viability assays read luminescence as a measure of living cells.)

A further data set deals with Hep3B cells. Description: Cancer cell viability assay (CellTiter-Glo 2.0), Hep3B. Type of data set: cell-based, Human. As to conditions: 72 hours compound treatment. The method, then:
as §1

The next data set has as its system Huh7 cells. The experiment in a line: Cancer cell viability assay (CellTiter-Glo 2.0), Huh7. Type of data set: cell-based, Human. The following applies: Huh7, 72 hours compound treatment. The method, then: as §1
A further data set has as its system SK-HEP-1 cells. The experiment in a line: Cancer cell viability assay (CellTiter-Glo 2.0), SK-HEP-1. Type of data set: cell-based, Human. The following applies: SK-HEP-1, 72 hours compound treatment. The protocol:
as §1

Data set [2] in a line: Pharmacokinetic study, jugular vein versus portal vein blood in rats. Type of data set: in vivo, Sprague-Dawley (SD) rats. As to conditions: SD rats, single oral dose 5 mg/kg suspension; compared with NVP-2 (FIG. 2). The method, then: For rat experiments, the pharmacokinetics of compounds in blood collected from jugular vein and portal vein were analyzed in Sprague-Dawley (SD) rats following a single oral administration dose of 5 mg/kg compound suspension. Blood samples for determination of compound concentration were obtained from jugular vein and portal vein at 0.25 h, 0.5 h, 1 h, 2 h, 4 h, 6 h, 8 h, and 24 h following administration of compounds (n=3 for each compound). Collected liver and blood samples were analyzed using an LC-MS/MS method to quantify compound concentrations. The ratios of compound concentrations in blood collected from jugular vein versus portal vein in Sprague-Dawley (SD) rats following a single oral administration dose of 5 mg/kg compound suspension are summarized in FIG. 2.

The nature of data set [3]: Tolerability and safety assessment study (body weight change). As to conditions: BALB/c nude mice; compared with NVP-2 (FIG. 3). Format: in vivo. The protocol: Based on the body weight, BALB/c nude mice were randomly assigned to respective groups using a computer-generated randomization procedure. Body weights of all animals were measured daily to record weight changes (relative to day 1) of BALB/c nude mice treated with vehicle and compounds. For routine monitoring, all study animals were monitored for behavior such as mobility, food and water consumption, body weight, eye/hair matting and any other abnormal effect. Any mortality and/or abnormal clinical signs were recorded. The animals were euthanized when they lost significant body mass (emaciated, obvious body weight loss >20%).

The structures appear in SMILES notation.

In general, IC50 refers to the concentration that gives 50% inhibition. Low readings indicate higher potency, high ones lower potency. As a reminder, the EC50 is the concentration at which the effect is half-maximal. Turning to `C[C@H](COCCNS(=O)(=O)C(F)(F)F)NC1CCC(Nc2cc(-c3cccc(NCC4(C#N)CCOCC4)n3)c(Cl)cn2)CC1` (mixture of isomers) [Compound 40, N-(2-(2-(((1r,4r)-4-((5′-chloro-6-(((4-cyanotetrahydro-2H-pyran-4-yl)methyl)amino)-[2,4′-bipyridin]-2′-yl)amino)cyclohexyl)amino)propoxy)ethyl)-1,1,1-trifluoromethanesulfonamide], the IC50 on CDK9/CyclinT was in the range of 2.5 to 5 nM. For the same molecule, in data set [1], the “ratio of compound concentrations in liver versus blood” value (shortened to “ratio … in liver versus blood”) is given as “higher liver/blood ratios than NVP-2”. Further, the EC50 is < 100 nM in the data set on HepG2 cells and 100 to 500 nM with Hep3B cells.

As for `C[C@H](COCc1nn[nH]n1)N[C@H]1CC[C@H](Nc2cc(-c3cccc(NCC4(C#N)CCOCC4)n3)c(Cl)cn2)CC1` [Compound 2, 4-(((2′-(((1R,4R)-4-(((R)-1-((2H-tetrazol-5-yl)methoxy)propan-2-yl)amino)cyclohexyl)amino)-5′-chloro-[2,4′-bipyridin]-6-yl)amino)methyl)tetrahydro-2H-pyran-4-carbonitrile], at CDK9/CyclinT, the IC50 is > 10 nM. Also, the EC50 with Huh7 cells was 500 to 1000 nM; with HepG2 cells, > 1000 nM; in the data set with Hep3B cells it was > 1000 nM; with SK-HEP-1 cells, > 1000 nM.

With `C[C@@H](COCc1nn[nH]n1)NC1CCC(Nc2cc(-c3cccc(NCC4(C#N)CCOCC4)n3)c(Cl)cn2)CC1` (stereo partly drawn) [Compound 3, 4-(((2′-(((1S,4R)-4-(((S)-1-((2H-tetrazol-5-yl)methoxy)propan-2-yl)amino)cyclohexyl)amino)-5′-chloro-[2,4′-bipyridin]-6-yl)amino)methyl)tetrahydro-2H-pyran-4-carbonitrile], at CDK9/CyclinT, the IC50 was > 10 nM. The EC50 with Huh7 cells, in the data set on HepG2 cells and in the data set on SK-HEP-1 cells was > 1000 nM in each case.

Consider `CCOC(=O)COC[C@@H](C)NC1CCC(Nc2cc(-c3cccc(NCC4(C#N)CCOCC4)n3)c(Cl)cn2)CC1` (some centres unmarked) [Compound 5], for which the 50% inhibitory concentration (IC50) on CDK9/CyclinT was < 2.5 nM. Further, the EC50 with Huh7 cells is < 100 nM; in the data set on HepG2 cells, 500 to 1000 nM; with SK-HEP-1 cells, < 100 nM.

With `CCOC(=O)COC[C@H](C)NC1CCC(Nc2cc(-c3cccc(NCC4(C#N)CCOCC4)n3)c(Cl)cn2)CC1` (some centres unmarked) [Compound 6], the IC50 against CDK9/CyclinT was < 2.5 nM. In addition, the EC50 in the data set on Huh7 cells was < 100 nM; with HepG2 cells it was 500 to 1000 nM; in the data set with Hep3B cells, 100 to 500 nM; in the data set with SK-HEP-1 cells, < 100 nM. In data set [2], the “ratio of compound concentrations in blood from jugular vein versus portal vein (liver efflux/influx ratio)” value is given as “lower liver efflux/influx ratio than NVP-2”.

Consider `C[C@H](COCC(=O)O)NC1CCC(Nc2cc(-c3cccc(NCC4(C#N)CCOCC4)n3)c(Cl)cn2)CC1` (stereo partly drawn) [Compound 8, 2-((R)-2-(((1R,4R)-4-((5′-chloro-6-(((4-cyanotetrahydro-2H-pyran-4-yl)methyl)amino)-[2,4′-bipyridin]-2′-yl)amino)cyclohexyl)amino)propoxy)acetic acid], for which, on CDK9/CyclinT, the IC50 lay in the range of 2.5 to 5 nM. The EC50 in the data set on Huh7 cells, with HepG2 cells and in the data set with SK-HEP-1 cells was > 1000 nM throughout.

The molecule `C[C@@H](COCC(=O)O)NC1CCC(Nc2cc(-c3cccc(NCC4(C#N)CCOCC4)n3)c(Cl)cn2)CC1` (stereo partly drawn) [Compound 9, 2-((S)-2-(((1R,4S)-4-((5′-chloro-6-(((4-cyanotetrahydro-2H-pyran-4-yl)methyl)amino)-[2,4′-bipyridin]-2′-yl)amino)cyclohexyl)amino)propoxy)acetic acid] returned an IC50 against CDK9/CyclinT of 5 to 10 nM. Moreover, the EC50 with Huh7 cells, in the data set on HepG2 cells, in the data set with Hep3B cells and in the data set on SK-HEP-1 cells was > 1000 nM each time.

In the case of `CC(C)OC(=O)COC[C@@H](C)N[C@H]1CC[C@H](Nc2cc(-c3cccc(NCC4(C#N)CCOCC4)n3)c(Cl)cn2)CC1` [Compound 15, isopropyl 2-((R)-2-(((1r,4R)-4-((5′-Chloro-6-(((4-Cyanotetrahydro-2H-pyran-4-yl)methyl)amino)-[2,4′-bipyridin]-2′-yl)amino)cyclohexyl)amino)propoxy)acetate], the IC50 against CDK9/CyclinT lay in the range of 2.5 to 5 nM. Also, the EC50 in the data set with Huh7 cells, with HepG2 cells and in the data set with SK-HEP-1 cells was < 100 nM throughout.

Molecule `CC(C)OC(=O)COC[C@H](C)N[C@H]1CC[C@H](Nc2cc(-c3cccc(NCC4(C#N)CCOCC4)n3)c(Cl)cn2)CC1` [Compound 16, isopropyl 2-((S)-2-(((1r,4S)-4-((5′-chloro-6-(((4-cyanotetrahydro-2H-pyran-4-yl)methyl)amino)-[2,4′-bipyridin]-2′-yl)amino)cyclohexyl)amino)propoxy)acetate] returned an IC50 at CDK9/CyclinT of 5 to 10 nM. The EC50 is < 100 nM in the data set on Huh7 cells, 100 to 500 nM in the data set on HepG2 cells and < 100 nM in the data set on SK-HEP-1 cells.

Turning to `C[C@H](COCC(=O)OC(C)(C)C)N[C@H]1CC[C@H](Nc2cc(-c3cccc(NCC4(C#N)CCOCC4)n3)c(Cl)cn2)CC1` [Compound 18, tert-butyl 2-((R)-2-(((1r,4R)-4-((5′-chloro-6-(((4-cyanotetrahydro-2H-pyran-4-yl)methyl)amino)-[2,4′-bipyridin]-2′-yl)amino)cyclohexyl)amino)propoxy)acetate], in data set [3], the “toxicity (mean weight changes relative to day 1)” value is “lower toxicity than NVP-2”. For the same molecule, the 50% inhibitory concentration (IC50) against CDK9/CyclinT is > 10 nM. For the same molecule, the “ratio … in liver versus blood” value in data set [1] is reported as “higher liver/blood ratios than NVP-2”. Further, the EC50 in the data set with Huh7 cells, with HepG2 cells, with Hep3B cells and in the data set on SK-HEP-1 cells was < 100 nM throughout. Also, in data set [2], the “ratio of compound concentrations in blood from jugular vein versus portal vein (liver efflux/influx ratio)” value is on record as “lower liver efflux/influx ratio than NVP-2”.

For `C[C@@H](COCC(=O)OC(C)(C)C)N[C@H]1CC[C@H](Nc2cc(-c3cccc(NCC4(C#N)CCOCC4)n3)c(Cl)cn2)CC1` [Compound 19, tert-butyl 2-((S)-2-(((1r,4S)-4-((5′-chloro-6-(((4-cyanotetrahydro-2H-pyran-4-yl)methyl)amino)-[2,4′-bipyridin]-2′-yl)amino)cyclohexyl)amino)propoxy)acetate], at CDK9/CyclinT, the IC50 lay within 2.5 to 5 nM. Also, the EC50 in the data set on Huh7 cells, with HepG2 cells and in the data set on SK-HEP-1 cells was < 100 nM in each case.

As for `C[C@H](COCc1nnn(C)n1)N[C@H]1CC[C@H](Nc2cc(-c3cccc(NCC4(C#N)CCOCC4)n3)c(Cl)cn2)CC1` [Compound 33, 4-(((5′-chloro-2′-(((1R,4r)-4-(((R)-1-((2-methyl-2H-tetrazol-5-yl)methoxy)propan-2-yl)amino)cyclohexyl)amino)-[2,4′-bipyridin]-6-yl)amino)methyl)tetrahydro-2H-pyran-4-carbonitrile], on CDK9/CyclinT, the IC50 lay in the range of 5 to 10 nM. For the same molecule, in data set [1], the “ratio … in liver versus blood” value is reported as “higher liver/blood ratios than NVP-2”. Besides, the EC50 was < 100 nM in the data set on HepG2 cells and 100 to 500 nM in the data set with Hep3B cells.

At CDK9/CyclinT, `CC(COCCNS(=O)(=O)C(F)F)NC1CCC(Nc2cc(-c3cccc(NCC4(C#N)CCOCC4)n3)c(Cl)cn2)CC1` (centres unmarked) [Compound 41, N-(2-(2-(((1r,4r)-4-((5′-chloro-6-(((4-cyanotetrahydro-2H-pyran-4-yl)methyl)amino)-[2,4′-bipyridin]-2′-yl)amino)cyclohexyl)amino)propoxy)ethyl)-1,1-difluoromethanesulfonamide] gave an IC50 of 5 to 10 nM. Also, the EC50 with HepG2 cells is < 100 nM; in the data set with Hep3B cells, 100 to 500 nM.
